Measurements reported in patent US11267824B2, “Inhibitors of indoleamine 2,3-dioxygenase and/or tryptophan 2,3-dioxygenase” (IDORSIA PHARMACEUTICALS LTD, priority 2017, dated 2022).

Assays:
[1] = biological target: Recombinant human TDO comprising amino acids 19-407 (Homo sapiens (Human), UniProt P48775); assay: TDO2 enzymatic assay (TDO inhibitory activity); format: biochemical; settings: 15 nM enzyme, 200 μM L-tryptophan, pH7, 30 min pre-incubation, NFK quantified by LCMS; mean values if measured multiple times; read-out: hTDO activity (IC50 in nM)
Summary of the method: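 His-tagged enzyme (15 nM, E. coli-expressed) in pH 7 phosphate buffer with ascorbate, catalase, BSA, Tween 20, 0.6% DMSO; 30 min RT pre-incubation with compound (10 μM–0.5 nM), then 200 μM L-tryptophan for 30 min RT. N′-formylkynurenine quantified by LCMS against deuterated tryptophan; IC50 by four-parameter fit, duplicates.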

[2] = biological target: Recombinant full-length human IDO1 (Homo sapiens (Human), UniProt P14902); assay: IDO1 enzymatic assay (IDO inhibitory activity); format: biochemical; settings: 2 nM enzyme, 5 μM L-tryptophan, pH6.5, 30 min pre-incubation, NFK quantified by LCMS; mean values if measured multiple times; read-out: hIDO activity (IC50 in nM)
Summary of the method: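 N-His-tagged enzyme from E. coli at 2 nM in 37.5 mM phosphate pH6.5 with ascorbate, methylene blue, catalase; compounds 10 μM–0.5 nM, 0.6% DMSO, pre-incubated 30 min RT, then 5 μM L-tryptophan for 30 min RT. NFK quantified by LCMS against d5-tryptophan; IC50 from duplicate four-parameter fit, means where repeated.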

Recombinant full-length human IDO1, sequence (P14902 whole entry): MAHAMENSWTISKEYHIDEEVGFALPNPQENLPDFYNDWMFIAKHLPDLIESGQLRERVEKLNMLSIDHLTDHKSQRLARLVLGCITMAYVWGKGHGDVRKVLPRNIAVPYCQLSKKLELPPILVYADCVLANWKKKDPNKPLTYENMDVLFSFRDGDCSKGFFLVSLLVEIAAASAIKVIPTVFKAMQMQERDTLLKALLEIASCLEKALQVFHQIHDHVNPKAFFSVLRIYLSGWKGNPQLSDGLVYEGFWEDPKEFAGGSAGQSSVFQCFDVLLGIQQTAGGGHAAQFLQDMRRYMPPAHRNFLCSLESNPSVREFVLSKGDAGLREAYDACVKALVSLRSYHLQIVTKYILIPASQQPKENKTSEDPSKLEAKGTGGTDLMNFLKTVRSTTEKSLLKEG
Recombinant human TDO comprising amino acids 19-407, sequence (P48775 19-406 limits assumed): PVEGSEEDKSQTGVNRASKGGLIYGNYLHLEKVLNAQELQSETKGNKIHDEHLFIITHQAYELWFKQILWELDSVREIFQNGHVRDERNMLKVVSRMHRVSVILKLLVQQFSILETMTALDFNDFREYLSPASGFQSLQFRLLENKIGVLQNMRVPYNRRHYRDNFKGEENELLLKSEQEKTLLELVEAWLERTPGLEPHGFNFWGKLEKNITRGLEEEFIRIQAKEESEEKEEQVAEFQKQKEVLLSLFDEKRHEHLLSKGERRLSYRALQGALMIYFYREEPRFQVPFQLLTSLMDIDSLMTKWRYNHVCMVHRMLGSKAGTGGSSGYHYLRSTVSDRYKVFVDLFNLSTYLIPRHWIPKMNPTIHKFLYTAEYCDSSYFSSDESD

IC50 [1] [nM] | IC50 [2] [nM] | Structure (SMILES)
115 | 7.5 | O[C@H](c1c(C2CC2)sc2cncn12)C1CCCCC1 [Example 1a, (S)-Cyclohexyl(2-cyclopropylimidazo[5,1-b]thiazol-3-yl)methanol]
962 | 172 | CC[C@H](C)c1sc2cncn2c1C(O)C1CCCCC1 (stereo partly drawn) [Example 185, [2-((S)-sec-Butyl)-imidazo[5,1-b]thiazol-3-yl]-cyclohexyl-methanol]
7160 | 3150 | COc1cccc(CC(O)c2c(C)sc3cncn23)c1 (racemic) [Example 62, rac-2-(3-Methoxy-phenyl)-1-(2-methyl-imidazo[5,1-b]thiazol-3-yl)-ethanol]
1130 | 18.4 | OC1CCC(CC(O)c2c(C3CC3)sc3cncn23)CC1 (racemic) [Example 152, rac-4-[2-(2-Cyclopropyl-imidazo[5,1-b]thiazol-3-yl)-2-hydroxy-ethyl]-cyclohexanol]
193 | 237 | OC(c1c(C2CCCC2)sc2cncn12)C1CCCCC1 (racemic) [Example 9, rac-Cyclohexyl(2-cyclopentylimidazo[5,1-b]thiazol-3-yl)methanol]
295 | 147 | CC1(C)CCCCC1CC(O)c1c(C2CC2)sc2cncn12 (stereo not shown) [Example 76, 1-(2-Cycclopropyl-imidazo[5,1-b]thiazol-3-yl)-2-(2,2-dimethyl-cyclohexyl)-ethanol]
37.9 | 32.4 | Cc1sc2cncn2c1C(O)C1(C)CCCCC1 (racemic) [Example 174, rac-(1-Methyl-cyclohexyl)-(2-methyl-imidazo[5,1-b]thiazol-3-yl)-methanol]
412 | 81.2 | Cc1sc2cncn2c1C(O)C1CCC(C)(C)C1 (stereo not shown) [Example 141, (3,3-Dimethyl-cyclopentyl)-(2-methyl-imidazo[5,1-b]thiazol-3-yl)-methanol]
922 | 56.7 | CC1(C)CCC(C(O)c2c(C(F)(F)F)sc3cncn23)C1 (stereo not shown) [Example 108, (3,3-Dimethyl-cyclopentyl)-(2-trifluoromethyl-imidazo[5,1-b]thiazol-3-yl)-methanol]
6800 | 1110 | COc1ccccc1C(O)c1c(C2CC2)sc2cncn12 (racemic) [Example 147, rac-(2-Cyclopropyl-imidazo[5,1-b]thiazol-3-yl)-(2-methoxy-phenyl)-methanol]
246 | 382 | OC(c1c(-c2ccccc2)sc2cncn12)C1CCCCC1 (racemic) [Example 92, rac-Cyclohexyl-(2-phenyl-imidazo[5,1-b]thiazol-3-yl)-methanol]
454 | 12.1 | CC1CCC(C(O)c2c(C3CC3)sc3cncn23)C1 (stereo not shown) [Example 30, (2-Cyclopropyl-imidazo[5,1-b]thiazol-3-yl)-(3-methyl-cyclopentyl)-methanol]
> 10200 | 459 | Cc1sc2cncn2c1C(O)C#Cc1ccccc1 (racemic) [Example 158, rac-1-(2-Methyl-imidazo[5,1-b]thiazol-3-yl)-3-phenyl-prop-2-yn-1-ol]
772 | 43.3 | OC(c1c(C2CC2)sc2cncn12)C1CCC(C(F)(F)F)CC1 (racemic) [Example 81, rac-(2-Cyclopropyl-imidazo[5,1-b]thiazol-3-yl)-(4-trifluoromethyl-cyclohexyl)-methanol]
7280 | 447 | CC1(C)CCC(CC(O)c2c(C(F)(F)F)sc3cncn23)CC1 (racemic) [Example 118, rac-2-(4,4-Dimethyl-cyclohexyl)-1-(2-trifluoromethyl-imidazo[5,1-b]thiazol-3-yl)-ethanol]
299 | 6.63 | CCc1sc2cncn2c1C(O)CC1CCCCC1 (racemic) [Example 100, rac-2-Cyclohexyl-1-(2-ethyl-imidazo[5,1-b]thiazol-3-yl)-ethanol]
239 | 441 | OC(c1c(-c2ccccc2F)sc2cncn12)C1CCCCC1 (racemic) [Example 182, rac-Cyclohexyl-[2-(2-fluoro-phenyl)-imidazo[5,1-b]thiazol-3-yl]-methanol]
509 | 21.4 | CC1CCCC(CC(O)c2c(C3CC3)sc3cncn23)C1 (stereo not shown) [Example 29, 1-(2-Cyclopropyl-imidazo[5,1-b]thiazol-3-yl)-2-(3-methyl-cyclohexyl)-ethanol]

The next lines start with the molecule.

Structure (SMILES) | IC50 [1] [nM] | IC50 [2] [nM]
OC(c1ccc(Cl)cc1)c1c(C2CC2)sc2cncn12 (racemic) [Example 146, rac-(4-Chloro-phenyl)-(2-cyclopropyl-imidazo[5,1-b]thiazol-3-yl)-methanol] | 1090 | 63.9
Cc1sc2cncn2c1C(O)C1CCN(c2ccccc2)CC1 (racemic) [Example 169, rac-(2-Methyl-imidazo[5,1-b]thiazol-3-yl)-(1-phenyl-piperidin-4-yl)-methanol] | 3960 | 537
Cc1sc2cncn2c1C(O)c1cn(C2CCCC2)nn1 (racemic) [Example 199, rac-(1-Cyclopentyl-1H-[1,2,3]triazol-4-yl)-(2-methyl-imidazo[5,1-b]thiazol-3-yl)-methanol] | > 10200 | 835
OC(CC1CC2CCC1O2)c1c(C2CC2)sc2cncn12 (stereo not shown) [Example 41, 1-(2-Cyclopropyl-imidazo[5,1-b]thiazol-3-yl)-2-(7-oxa-bicyclo[2.2.1]hept-2-yl)-ethanol] | 2340 | 93.4
O[C@H](c1c(Cl)sc2cncn12)C1CCCCC1 [Example 13a, (S)-(2-Chloroimidazo[5,1-b]thiazol-3-yl)(cyclohexyl)methanol] | 162 | 93
OC(c1c(C(F)(F)F)sc2cncn12)C1CCCC1 (racemic) [Example 132, rac-Cyclopentyl-(2-trifluoromethyl-imidazo[5,1-b]thiazol-3-yl)-methanol] | 591 | 44.3
CCc1sc2cncn2c1C(O)C1CC(C)(C)C1 (racemic) [Example 180, rac-(3,3-Dimethyl-cyclobutyl)-(2-ethyl-imidazo[5,1-b]thiazol-3-yl)-methanol] | 72.9 | 6.65
CC1CCCC(C(O)c2c(C3CC3)sc3cncn23)C1 (stereo not shown) [Example 27, (2-Cyclopropyl-imidazo[5,1-b]thiazol-3-yl)-(3-methyl-cyclohexyl)-methanol] | 384 | 17.2
Cc1sc2cncn2c1C(O)C1CC(C)(C)C1 (racemic) [Example 109, rac-(3,3-Dimethyl-cyclobutyl)-(2-methyl-imidazo[5,1-b]thiazol-3-yl)-methanol] | 190 | 13.6
CC1(c2ccccc2)CCC(C(O)c2c(C3CC3)sc3cncn23)C1 (stereo not shown) [Example 88, (2-Cyclopropyl-imidazo[5,1-b]thiazol-3-yl)-(3-methyl-3-phenyl-cyclopentyl)-methanol] | 1280 | 76.7
CC1([C@H](O)c2c(C3CC3)sc3cncn23)CCCC1 [Example 48a, (S)-(2-Cyclopropyl-imidazo[5,1-b]thiazol-3-yl)-(1-methyl-cyclopentyl)-methanol] | 42.5 | 4.37
OC(CC1CCC(C2CCCC2)CC1)c1c(C2CC2)sc2cncn12 (racemic) [Example 134, rac-2-(4-Cyclopentyl-cyclohexyl)-1-(2-cyclopropyl-imidazo[5,1-b]thiazol-3-yl)-ethanol] | 2800 | 757
CC(C)CC1CCC(C(O)c2c(C3CC3)sc3cncn23)C1 (stereo not shown) [Example 78, (2-Cyclopropyl-imidazo[5,1-b]thiazol-3-yl)-(3-isobutyl-cyclopentyl)-methanol] | 2010 | 72.3
OC(c1c(Br)sc2cncn12)C1CCCCC1 (racemic) [Example 14, rac-(2-Bromoimidazo[5,1-b]thiazol-3-yl)(cyclohexyl)methanol] | 218 | 28
OC(CC1CCCCCC1)c1c(C2CC2)sc2cncn12 (racemic) [Example 28, rac-2-Cycloheptyl-1-(2-cyclopropyl-imidazo[5,1-b]thiazol-3-yl)-ethanol] | 470 | 24.3
CC1(c2sc3cncn3c2C(O)C2CCCCC2)CC1 (racemic) [Example 170, rac-Cyclohexyl-[2-(1-methyl-cyclopropyl)-imidazo[5,1-b]thiazol-3-yl]-methanol] | 2260 | 415
OC(c1c(-c2cccnc2)sc2cncn12)C1CCCCC1 (racemic) [Example 124, rac-Cyclohexyl-(2-pyridin-3-yl-imidazo[5,1-b]thiazol-3-yl)-methanol] | 881 | 342
CC1(C(O)c2c(C3CC3)sc3cncn23)CCCCCC1 (racemic) [Example 166, rac-(2-Cyclopropyl-imidazo[5,1-b]thiazol-3-yl)-(1-methyl-cycloheptyl)-methanol] | 310 | 32.1
OC(c1c([C@@H]2C[C@@H]2F)sc2cncn12)C1CCCCC1 (relative stereo) [Example 186, Cyclohexyl-[2-(cis-2-fluoro-cyclopropyl)-imidazo[5,1-b]thiazol-3-yl]-methanol] | 491 | 21.8
OC(c1cccc(F)c1)c1c(C2CC2)sc2cncn12 (racemic) [Example 145, rac-(2-Cyclopropyl-imidazo[5,1-b]thiazol-3-yl)-(3-fluoro-phenyl)-methanol] | 449 | 33.1
